Earlier results as cited in patent US8470371B2, “Polymeric micellar clusters and their uses in formulating drugs” (priority 2006, dated 2013).
Values belong to the compound of their own block, whether it stands above or below them.

Tests used:
[1] = drug: propofol; literature
[2] = comparator amphiphiles

Drug Concentration [1]: 38700 µg/mL
Moles drug encapsulated per mole of polymer [1]: 0.75 [10]
Compound: 2-hydroxypropyl-β-cyclodextrin

Log P: 1.4
Compound: C[C@]12C=CC(=O)C=C1CC[C@@H]1[C@@H]2[C@@H](O)C[C@@]2(C)[C@H]1CC[C@]2(O)C(=O)CO [Prednisolone]

Compound: CC(C)c1cccc(C(C)C)c1O [Propofol]
Log P: 4.1

CMC [2]: 53 µM
HLB [2]: 16.7
Compound: polysorbate 20
